Measurements reported in patent US10399989B2, “Pyrazolopyrimidine derivatives as BTK inhibitors for the treatment of cancer” (Loxo Oncology, Inc., priority 2016, dated 2019).
Where two headings read alike, the source gives them in different places.

What was measured:
BTK^WT = BTK^WT (Homo sapiens (Human), UniProt Q06187); experiment: BTK^WT binding affinity (TR-FRET, LanthaScreen)
Method: BTK^WT binding affinity of each compound tested was determined using a time-resolved fluorescence resonance energy transfer (TR-FRET) methodology. 2.5 nM Recombinant BTK^WT kinase, varying concentrations of inhibitor, 2 nM LanthaScreen™ Eu anti-His Antibody and 15 nM Kinase Tracer 236 was incubated in 1× LanthaScreen™ Kinase Buffer A for 5 h. Recombinant BTK kinase and all LanthaScreen™ components were purchased from Invitrogen. Measurements were performed in a reaction volume of 30 μL using half-area 96-well assay plates. The TR-FRET signal was read on a plate reader with an excitation wavelength of 340 nm and detection wavelengths of 615 and 665 nm. Binding affinity was determined for each compound by measuring TR-FRET signal at various concentrations of compound and plotting the relative fluorescence units against the inhibitor concentration to estimate the IC50 from log [Inhibitor] vs response using the Variable Slope model in Graphpad prism from Graphpad software (SanDiego, Calif.).

BTK^C481S = BTK^C481S (Homo sapiens (Human), UniProt Q06187, C481S); experiment: BTK^C481S binding affinity (TR-FRET, LanthaScreen); settings: 5 h incubation
Method: BTK^C481S binding affinity of each compound tested was determined using a time-resolved fluorescence resonance energy transfer (TR-FRET) methodology. 5 nM Recombinant […] kinase, varying concentrations of inhibitor, 2 nM LanthaScreen™ Eu anti-His Antibody and 30 nM Kinase Tracer 236 was incubated in 1× LanthaScreen™ Kinase Buffer A for 5 h. Recombinant BTK^C481S kinase was purchased from SignalChem and all LanthaScreen™ components were purchased from Invitrogen. Measurements were performed in a reaction volume of 30 μL using half-area 96-well assay plates. The TR-FRET signal was read on a plate reader with an excitation wavelength of 340 nm and detection wavelengths of 615 and 665 nm. Binding affinity was determined for each compound by measuring TR-FRET signal at various concentrations of compound and plotting the relative fluorescence units against the inhibitor concentration to estimate the IC50 from log [Inhibitor] vs response using the Variable Slope model in Graphpad prism from Graphpad software (SanDiego, Calif.).

EGFR = EGFR (Homo sapiens (Human), UniProt P00533); experiment: EGFR binding affinity (TR-FRET, LanthaScreen); settings: 5 h incubation
Method: EGFR binding affinity was determined using a time-resolved fluorescence resonance energy transfer (TR-FRET) methodology. 2.5 nM Recombinant EGFR, varying concentrations of inhibitor, 2 nM LanthaScreen™ Eu anti-GST Antibody and 3 nM Kinase Tracer 199 was incubated in 1× LanthaScreen™ Kinase Buffer A for 5 h. Recombinant EGFR and all LanthaScreen™ components were purchased from Invitrogen. Measurements were performed in a reaction volume of 30 μL using half-area 96-well assay plates. The TR-FRET signal was read on a plate reader with an excitation wavelength of 340 nm and detection wavelengths of 615 and 665 nm. Binding affinity was determined for each compound by measuring TR-FRET signal at various concentrations of compound and plotting the relative fluorescence units against the inhibitor concentration to estimate the IC50 from log [Inhibitor] vs response using the Variable Slope model in Graphpad prism from Graphpad software (SanDiego, Calif.).

[1] = system: OCI-Ly10 human DLBCL cells; experiment: OCI-Ly10 anti-proliferative activity (Resazurin, 72 h); type: cell-based; settings: read-out: Proliferation OCI-Ly10-IC50
Method: Compounds were assayed for effects on the growth of OCI-Ly10 human DLBCL cells that are dependent on NFκB signalling. OCI-Ly10 cells were grown in suspension in T225 flasks, centrifuged and re-suspended in 2.5% FBS containing media. Cells were then plated at 7.5×10^3 cells per well in 96-well plates in varying concentrations of compound and incubated for 72 h at 37° C. An additional plate of cells to be used as the Day 0 read was seeded without compound addition, Resazurin was added to each well, incubated for 5 h and the fluorescence measured at 590 nm. After 72 h of compound treatment, Resazurin was added to each well of the compound treated plates, incubated for 5 h and the fluorescence measured at 590 nm. The IC50 was then calculated by subtracting the average Day 0 value from each well value from the treated plates, each treatment was then calculated as a percentage of the DMSO control and the percentages plotted against the inhibitor concentration to estimate the IC50 from log [Inhibitor] vs response using the Variable Slope model in Graphpad prism from Graphpad software (SanDiego, Calif.).

[2] = TR-FRET binding, 5 h incubation, read-out: BTK^WT IC50

BTK^WT, sequence (Q06187 whole entry): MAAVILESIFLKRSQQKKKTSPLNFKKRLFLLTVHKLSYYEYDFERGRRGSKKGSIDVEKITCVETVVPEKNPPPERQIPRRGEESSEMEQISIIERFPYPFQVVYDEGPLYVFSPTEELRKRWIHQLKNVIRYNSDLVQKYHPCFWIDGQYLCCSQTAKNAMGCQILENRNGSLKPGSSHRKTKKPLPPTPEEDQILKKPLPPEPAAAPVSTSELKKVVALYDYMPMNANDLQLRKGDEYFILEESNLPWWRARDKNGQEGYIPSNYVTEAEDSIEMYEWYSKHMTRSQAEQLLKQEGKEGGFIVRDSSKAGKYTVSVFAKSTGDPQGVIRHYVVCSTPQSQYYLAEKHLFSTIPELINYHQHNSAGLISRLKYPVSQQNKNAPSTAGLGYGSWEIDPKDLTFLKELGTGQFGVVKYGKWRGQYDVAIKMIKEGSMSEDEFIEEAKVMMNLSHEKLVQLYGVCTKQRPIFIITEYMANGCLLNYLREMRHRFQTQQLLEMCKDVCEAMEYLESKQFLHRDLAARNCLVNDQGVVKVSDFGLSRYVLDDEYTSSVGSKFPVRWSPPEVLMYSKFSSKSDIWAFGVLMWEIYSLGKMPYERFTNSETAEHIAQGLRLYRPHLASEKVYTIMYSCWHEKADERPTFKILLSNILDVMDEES
BTK^C481S, sequence (Q06187 whole entry C481S): as the sequence (Q06187 whole entry) above, with C481S counted along it
EGFR, sequence (P00533 25-1210): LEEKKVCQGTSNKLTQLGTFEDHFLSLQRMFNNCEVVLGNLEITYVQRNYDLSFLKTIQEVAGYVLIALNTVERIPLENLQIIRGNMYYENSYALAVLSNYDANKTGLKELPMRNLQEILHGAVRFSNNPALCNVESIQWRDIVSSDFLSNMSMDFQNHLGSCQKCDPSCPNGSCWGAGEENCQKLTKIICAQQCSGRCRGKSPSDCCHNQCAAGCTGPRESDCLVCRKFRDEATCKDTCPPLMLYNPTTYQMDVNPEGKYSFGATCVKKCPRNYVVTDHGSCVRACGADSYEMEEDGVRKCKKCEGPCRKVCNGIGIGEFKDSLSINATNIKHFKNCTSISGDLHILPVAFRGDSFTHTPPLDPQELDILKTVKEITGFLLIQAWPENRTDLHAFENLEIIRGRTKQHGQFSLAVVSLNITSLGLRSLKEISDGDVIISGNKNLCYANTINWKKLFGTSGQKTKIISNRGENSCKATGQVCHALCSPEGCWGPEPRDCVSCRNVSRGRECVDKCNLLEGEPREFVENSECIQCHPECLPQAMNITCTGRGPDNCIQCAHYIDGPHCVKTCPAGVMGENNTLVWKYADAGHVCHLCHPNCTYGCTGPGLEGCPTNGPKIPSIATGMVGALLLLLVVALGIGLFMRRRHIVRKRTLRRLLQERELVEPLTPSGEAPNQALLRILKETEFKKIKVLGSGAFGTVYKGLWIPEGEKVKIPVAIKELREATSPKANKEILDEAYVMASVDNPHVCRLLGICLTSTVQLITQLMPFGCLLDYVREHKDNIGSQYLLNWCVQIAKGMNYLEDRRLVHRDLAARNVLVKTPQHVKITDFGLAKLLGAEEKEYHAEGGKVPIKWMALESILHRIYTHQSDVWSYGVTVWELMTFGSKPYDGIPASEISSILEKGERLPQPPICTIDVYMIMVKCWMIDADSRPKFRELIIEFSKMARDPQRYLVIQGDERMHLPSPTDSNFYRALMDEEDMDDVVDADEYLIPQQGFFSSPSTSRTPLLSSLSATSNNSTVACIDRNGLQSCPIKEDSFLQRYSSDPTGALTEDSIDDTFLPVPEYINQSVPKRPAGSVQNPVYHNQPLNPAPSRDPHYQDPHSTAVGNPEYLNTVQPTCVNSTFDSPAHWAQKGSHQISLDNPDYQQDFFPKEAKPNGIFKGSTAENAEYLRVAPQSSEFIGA

Structure (SMILES) | IC50 (BTK^WT; [2]) [µM] | IC50 (BTK^WT; Table 6, numeric values, read-out: BTK Binding IC50) [µM] | IC50 (BTK^C481S) [µM] | IC50 (EGFR) [µM] | IC50 ([1]; Homo sapiens, OCI-Ly10, 72 h) [µM] | IC50 [1] [µM]
COc1ccccc1C(=O)NCc1ccc(-c2nn([C@@H]3CC[C@H](O)C3)c3ncnc(N)c23)cc1 (relative stereo) [Example 24, N-[[4-[4-amino-1-[(1R*,3S*)-3-hydroxycyclopentyl]pyrazolo[3,4-d]pyrimidin-3-yl]phenyl]methyl]-2-methoxy-benzamide] | ≤ 0.01 | 0.0022 | ≤ 0.01 | 0.1 to 1 | 0.01 to 0.1 | –
COc1ccccc1C(=O)NCc1ccc(-c2nn(C3CCC(O)CC3)c3ncnc(N)c23)cc1 (single isomer, unassigned) [Example 23-isomer1, N-[[4-[4-amino-1-(4-hydroxycyclohexyl)pyrazolo[3,4-d]pyrimidin-3-yl]phenyl]methyl]-2-methoxy-benzamide] | ≤ 0.01 | – | ≤ 0.01 | 0.1 to 1 | – | 0.1 to 1
COc1ccccc1C(=O)NCc1ccc(-c2nn(C3CCCC3)c3ncnc(N)c23)cc1 [Example 1, N-[[4-(4-amino-1-cyclopentyl-pyrazolo[3,4-d]pyrimidin-3-yl)phenyl]methyl]-2-methoxy-benzamide] | ≤ 0.01 | – | ≤ 0.01 | – | 0.01 to 0.1 | –
COc1cc(C)ccc1C(=O)NCc1ccc(-c2nn(C3CCCC3)c3ncnc(N)c23)cc1 [Example 10, N-[[4-(4-amino-1-cyclopentyl-pyrazolo[3,4-d]pyrimidin-3-yl)phenyl]methyl]-2-methoxy-4-methyl-benzamide] | – | – | – | > 10 | 0.1 to 1 | –
COc1ccc(C(F)(F)F)cc1C(=O)NCc1ccc(-c2nn(C3CCCC3)c3ncnc(N)c23)cc1 [Example 13, N-[[4-(4-amino-1-cyclopentyl-pyrazolo[3,4-d]pyrimidin-3-yl)phenyl]methyl]-2-methoxy-5-(trifluoromethyl)benzamide] | 0.1 to 1 | – | – | > 10 | 0.1 to 1 | –
COc1c(F)cccc1C(=O)NCc1ccc(-c2nn(C3CCCC3)c3ncnc(N)c23)cc1 [Example 14, N-[[4-(4-amino-1-cyclopentyl-pyrazolo[3,4-d]pyrimidin-3-yl)phenyl]methyl]-3-fluoro-2-methoxy-benzamide] | – | – | – | 1 to 10 | 0.1 to 1 | –
COc1cc(F)ccc1C(=O)NCc1ccc(-c2nn(C3CCCC3)c3ncnc(N)c23)cc1 [Example 15, N-[[4-(4-amino-1-cyclopentyl-pyrazolo[3,4-d]pyrimidin-3-yl)phenyl]methyl]-4-fluoro-2-methoxy-benzamide] | – | – | – | 1 to 10 | 0.01 to 0.1 | –
COc1cccc(F)c1C(=O)NCc1ccc(-c2nn(C3CCCC3)c3ncnc(N)c23)cc1 [Example 16, N-[[4-(4-amino-1-cyclopentyl-pyrazolo[3,4-d]pyrimidin-3-yl)phenyl]methyl]-2-fluoro-6-methoxy-benzamide] | – | – | – | 1 to 10 | 1 to 10 | –
COc1ncccc1C(=O)NCc1ccc(-c2nn(C3CCCC3)c3ncnc(N)c23)cc1 [Example 18, N-[[4-(4-amino-1-cyclopentyl-pyrazolo[3,4-d]pyrimidin-3-yl)phenyl]methyl]-2-methoxy-pyridine-3-carboxamide] | 0.01 to 0.1 | – | 0.01 to 0.1 | – | 0.1 to 1 | –
COc1ccccc1C(=O)NC(C)c1ccc(-c2nn(C3CCCC3)c3ncnc(N)c23)cc1 (stereo not drawn) [Example 64, N-[1-[4-(4-amino-1-cyclopentyl-pyrazolo[3,4-d]pyrimidin-3-yl)phenyl]ethyl]-2-methoxy-benzamide] | – | – | – | 1 to 10 | 1 to 10 | –
COc1cc(-c2nn(C3CCCC3)c3ncnc(N)c23)ccc1CNC(=O)c1ccccc1OC [Example 75, N-[[4-(4-Amino-1-cyclopentyl-pyrazolo[3,4-d]pyrimidin-3-yl)-2-methoxy-phenyl]methyl]-2-methoxy-benzamide] | ≤ 0.01 | – | ≤ 0.01 | – | 0.01 to 0.1 | –
CC(C)c1ccccc1C(=O)NCc1ccc(-c2nn(C3CCCC3)c3ncnc(N)c23)cc1 [Example 80, N-[[4-(4-amino-1-cyclopentyl-pyrazolo[3,4-d]pyrimidin-3-yl)phenyl]methyl]-2-isopropyl-benzamide] | – | – | – | 1 to 10 | 1 to 10 | –
